The test system of data set [1] is stratum corneum. The data set is described as follows: Transepidermal Water Loss (TWL) across isolated defatted stratum corneum (Evaporimeter EP1). The following applies: 40% relative humidity, 30° C., 3% aqueous solution (compounds 9 and 15 in isopropyl N-lauroyl sarcosinate), mean ± standard deviation, 8 samples. The procedure:
(§1) Two tests were performed to evaluate the moisturizing potential of the compounds of the invention formulated in an aqueous 3% solution (except for compounds 9 and 15, which were evaluated in a solution of isopropyl N-lauroyl sarcosinate).
Transepidermal Water Loss (TWL), evaluation of the changes in barrier function of the stratum corneum.
Transepidermal water loss is a physiological phenomenon of diffusion of water vapour across the horny layer. It results from the presence of a high pressure gradient of water vapour between the internal and external media of the body. The TWL depends on the integrity of the barrier function of the stratum corneum. The machine evaluating the TWL (Evaporimeter EP1, Servomed) measures the flow of water that diffuses passively across the stratum corneum (g/m^2/h).
The isolated stratum is placed (inner face) on a water tank and equilibrated in a room regulated at 40% relative humidity (T=30° C.). Before the measurement, the stratum corneum is defatted via a two-hour treatment in a mixture of chloroform and methanol (2 v/lv). For each measurement, the TWL is measured on the stratum corneum before treatment and then 2 and 20 hours after application of the treatment. […] The measurements are analysed in pairs. […]
The mean and the standard deviation were calculated on 8 samples distributed over 2 batches of stratum corneum.

Data set [2] deals with stratum corneum. In words: Dermometer: mechanical measurement of the plasticizing effect (modulus of elasticity). The settings on record: 30° C., 75% relative humidity, 3% aqueous solution (compounds 9 and 15 in isopropyl N-lauroyl sarcosinate), mean ± standard deviation, 6 to 10 samples. As to the method:
as §1
Dermometer, mechanical measurement of the plasticizing effect (described by J. de Rigal, J-L. Leveque, International Journal of Cosmetic Science, 1982, 247-260),
The tests carried out were performed under standard conditions on stratum corneum in a room with regulated temperature and humidity (T=30° C. and RH=75%). The modulus of elasticity measurements are performed on each control specimen and then 2 hours and 20 hours after application of the treatment. The relative variation in the modulus allows assessment of the plasticizing effect of the active agent on the stratum corneum.
The mean and the standard deviation were calculated on 6 to 10 samples.

For `NS(=O)(=O)NCCOS(N)(=O)=O` [Compound 17, 2-[(aminosulfonyl)amino]ethyl sulfamate], the melting point was in the range of 78 to 82 °C.
For the compound `NC(N)=O` [3% urea in water, urea], the “Relative variation of the TWL measurements” value was 64.3 ± 26.9% in data set [1] (2 h after application) and 48.3 ± 24.5% in data set [1] (20 h after application). The “Relative variation in the modulus of elasticity of stratum corneum” value in data set [2] (2 h after application) is recorded as −72 ± 9%; in data set [2] (20 h after application) it was −83 ± 7%.
Take `C[Si](C)(C)C(NS(N)(=O)=O)[Si](C)(C)C`: the melting point fell in the range of 76 to 77.5 °C.

The record behind these values is patent US8293256B2, “Sulfamide derivatives and cosmetic use thereof” (L'Oreal, priority 2004, dated 2012).
